One series has as its target T1, PPARδ-RXRα heterodimer (Homo sapiens, UniProt Q03181).
T1 construct: expressed in transfected cells; host or cells: COS-1
T1 sequence (Q03181 1-441): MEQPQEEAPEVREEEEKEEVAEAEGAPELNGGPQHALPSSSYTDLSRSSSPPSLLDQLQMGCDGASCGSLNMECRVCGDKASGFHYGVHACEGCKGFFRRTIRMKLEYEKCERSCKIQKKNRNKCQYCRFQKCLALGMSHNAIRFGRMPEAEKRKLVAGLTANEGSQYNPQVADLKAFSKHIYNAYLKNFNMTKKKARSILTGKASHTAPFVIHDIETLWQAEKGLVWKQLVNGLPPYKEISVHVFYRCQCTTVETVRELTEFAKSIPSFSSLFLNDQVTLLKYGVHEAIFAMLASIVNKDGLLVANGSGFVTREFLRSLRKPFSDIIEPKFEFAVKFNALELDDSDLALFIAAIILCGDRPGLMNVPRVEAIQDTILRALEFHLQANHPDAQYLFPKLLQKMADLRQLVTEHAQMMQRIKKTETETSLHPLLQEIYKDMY
T1 sequence (P19793 1-462 partner): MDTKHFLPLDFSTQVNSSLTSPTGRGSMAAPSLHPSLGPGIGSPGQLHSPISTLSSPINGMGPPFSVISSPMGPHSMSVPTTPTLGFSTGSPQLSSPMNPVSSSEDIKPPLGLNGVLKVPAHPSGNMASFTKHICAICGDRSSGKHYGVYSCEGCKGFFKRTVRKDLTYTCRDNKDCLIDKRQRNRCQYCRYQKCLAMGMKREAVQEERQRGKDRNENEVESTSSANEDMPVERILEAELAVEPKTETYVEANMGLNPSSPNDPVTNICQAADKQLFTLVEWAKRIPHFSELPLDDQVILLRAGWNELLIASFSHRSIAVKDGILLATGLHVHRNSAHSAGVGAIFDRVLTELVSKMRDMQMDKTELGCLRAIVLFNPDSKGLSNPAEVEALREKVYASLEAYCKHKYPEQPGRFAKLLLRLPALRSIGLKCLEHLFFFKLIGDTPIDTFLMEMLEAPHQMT
Kind of series: PPARδ-RXRα heterodimer ligand activity, luciferase reporter in COS-1 transformant (Test Example 4). In kind it is cell-based. To be noted: COS-1 transformant (hPPARδ, hRXRα, reporter), 36-48 hours, concentration for 50% of the maximum fold induction. The protocol:
The transformant obtained in Reference Example 9a was suspended in DMEM medium (produced by Life Technologies, Inc., USA) containing 0.1% fatty acid-free bovine serum albumin (BSA) (produced by Wako Pure Chemical Industries, Ltd.), and inoculate to each well of a 96-well white plate (produced by Corning Costar Corporation, USA) by 80 μl at 1×10^4 cells/well. Then the test compound (20 μl) was added and cultured at 37° C. under 5% CO2 for 36-48 hours. After removing the medium from the 96-well white plate, 40 μl of PIKKAGENE LT 7.5 (produced by Wako Pure Chemical Industries, Ltd.) diluted twice with HBSS (HANKS' BALANCED SALT SOLUTION)(produced by BIO WHITTAKER Inc., USA), was added. After stirring, the luciferase activity was determined using 1420 ARVO Multilabel Counter (produced by PerkinElmer Inc., USA).
A fold induction was calculated based on the luciferase activity of each test compound by taking the luciferase activity in the non-treatment group as 1. The values of the test compound concentration and the fold induction were analyzed using PRISM (produced by GraphPad Software Inc. USA) to calculate the EC50 values, the effective concentration of a test compound for 50% of the maximum fold induction.
COS-1 cells were inoculated to a 150 cm^2 cell culture flask (produced by Corning Costar Corporation, USA) at the density of 5×10^6 cells/50 ml, and cultured at 37° C. under 5% CO2 conditions for 24 hours. Subsequently, a DNA was introduced into the cell under the condition shown below using Lipofectamine (produced by Invitrogen, USA).
First, Lipofectamine (125 μl), PLUS Reagent (100 μl, produced by Invitrogen, USA), plasmid pMCMVneo-hPPARδ (2.5 μg) obtained in Reference Example 3a, plasmid pMCMVneo-hRXRα (2.5 μg) obtained in Reference Example 4a and reporter plasmid pGL3-4ERPP-TK neo (5 μg) obtained in Reference Example 5a, and pRL-tk (5 μg, produced by Promega, USA) were mixed with opti-MEM (5 ml, produced by Invitrogen, USA) to give a transfection mixture.
Then, the above-mentioned transfection mixture and opti-MEM (20 ml) were added to COS-1 cells washed with opti-MEM, and the cells were cultured at 37° C. under 5% CO2 conditions for 3 hours. DMEM medium (25 ml, produced by Life Technologies, Inc., USA) containing 0.1% fatty acid-free bovine serum albumin (BSA) (produced by Wako Pure Chemical Industries, Ltd.) was added to the obtained COS-1 cells, and the cells were cultured at 37° C. under 5% CO2 conditions for 18-24 hours to give a transformant.
A general note: Reporter assays use an easily measured gene product as a stand-in for the process of interest.

A further series concerns KKAY mice. Kind of series: Hypoglycemic and hypolipidemic actions in mice (Test Example 1). In kind it is in vivo. The following applies: Mus musculus, po, 96 h, 0.005% in powdery diet, four days, non-treated group taken as 100%. The protocol:
Test compounds were mixed in a powdery diet (CE-2, Japan Clea) at the concentration of 0.005%, and freely given to KKAY mice (9 to 12 weeks old, 5 mice in a group), a model of obese and non-insulin dependent diabetes (type 2 diabetes), for four days. During this period, water was given freely. Blood was sampled from orbital venous plexus, and glucose and triglyceride levels in plasma separated from blood were determined enzymatically using L type Wako Glu2 (Wako Pure Chemical Industries, Ltd.) or L type Wako TG·H (Wako Pure Chemical Industries, Ltd.), respectively.
In the table, “hypoglycemic action (%)” means the rate of decrease (%) in the blood glucose level of the treated group when the blood glucose level of the non-treated group is taken as 100%. In addition, the “hypolipidemic action (%)” means the rate of decrease (%) in the blood triglyceride level of the treated group when the blood triglyceride level of the non-treated group is taken as 100%.

Setting [1] is: rate of decrease in blood glucose level, read-out: Hypoglycemic action (%).
The mark [2] stands for this setting: rate of decrease in blood triglyceride level, read-out: Hypolipidemic action (%).

pEC50: −log10 of the molar value. Read-outs that look alike come from different tables or passages of the source.

In general, melting point refers to the temperature of the solid-liquid transition. The pEC50 is the EC50 on a negative log10 scale, so that one unit is a factor of ten. Low values mean a high EC50, high ones a low EC50. Molecule `CCCc1nn(-c2ccc(C(F)(F)F)cn2)cc1CCCOc1cccc(CC(=O)O)c1` [Example 44, [3-(3-{3-propyl-1-[5-(trifluoromethyl)-2-pyridyl]-1H-pyrazol-4-yl}propoxy)phenyl]acetic acid] registered a melting point of 106 to 107 °C. The molecule further showed a pEC50 on PPARδ-RXRα heterodimer of 8.41.
For `CCCc1nn(-c2ccc(C(F)(F)F)cn2)cc1CCCOc1ccc(CC(=O)O)cc1` [Example 46, [4-(3-{3-propyl-1-[5-(trifluoromethyl)-2-pyridyl]-1H-pyrazol-4-yl}propoxy)phenyl]acetic acid], in that order: 101 to 102 °C and 8.19.
`CC(C)c1nn(-c2ccc(C(F)(F)F)cn2)cc1CCCCOc1cc(CCC(=O)O)n(-c2ccccc2)n1` [Example 49, 3-[3-(4-{3-isopropyl-1-[5-(trifluoromethyl)-2-pyridinyl]-1H-pyrazol-4-yl}butoxy)-1-phenyl-1H-pyrazol-5-yl]propanoic acid]: the melting point is 137 to 138 °C. For the same molecule, the pEC50 at PPARδ-RXRα heterodimer was 8.77.
For the molecule `CC(C)c1nn(-c2ccc(C(F)(F)F)cn2)cc1CCCCOc1cccc(CC(=O)O)c1` [Example 51, [3-(4-{3-isopropyl-1-[5-(trifluoromethyl)-2-pyridinyl]-1H-pyrazol-4-yl}butoxy)phenyl]acetic acid], the negative logarithm of the EC50 (pEC50) at PPARδ-RXRα heterodimer is 8.41.
With `CC(C)c1nn(-c2ccc(C(F)(F)F)cn2)cc1CCCOc1ccccc1CC(=O)O` [Example 179, [2-(3-{3-isopropyl-1-[5-(trifluoromethyl)-2-pyridyl]-1H-pyrazol-4-yl}propoxy)phenyl]acetic acid], the melting point was in the range of 132 to 133 °C. For the same molecule, in the series with KKAY mice (setting [1]), the inhibition in vivo at 0.005 % in diet was determined as 34%. In the series with KKAY mice (setting [2]), the inhibition in vivo at 0.005 % in diet is 37%.
Molecule `COc1cccc(CC(=O)O)c1OCCCCc1cn(-c2ccc(C(F)(F)F)cn2)nc1C(C)C` [Example 180, [2-(4-{3-isopropyl-1-[5-(trifluoromethyl)-2-pyridyl]-1H-pyrazol-4-yl}butoxy)-3-methoxyphenyl]acetic acid] gave a melting point of 144 to 145 °C. The inhibition in vivo at 0.005 % in diet in the series on KKAY mice (setting [1]) worked out at 32%. In the series with KKAY mice (setting [2]), the inhibition in vivo at 0.005 % in diet worked out at 36%.
`CC(C)c1nn(-c2ccc(C(F)(F)F)cn2)cc1CCCOc1c(F)cccc1CC(=O)O` [Example 207, [3-fluoro-2-(3-{3-isopropyl-1-[5-(trifluoromethyl)-2-pyridyl]-1H-pyrazol-4-yl}propoxy)phenyl]acetic acid] came in with a melting point of 140 to 141 °C. Besides, in the series on KKAY mice (setting [1]), the inhibition in vivo at 0.005 % in diet amounted to 49%. Also, the inhibition in vivo at 0.005 % in diet in the series with KKAY mice (setting [2]) came out at 72%.
In turn, `COc1cccc(CC(=O)O)c1OCCCc1cn(-c2ncc(C(F)(F)F)cc2Cl)nc1C(C)C` [Example 217, [2-(3-{1-[3-chloro-5-(trifluoromethyl)-2-pyridyl]-3-isopropyl-1H-pyrazol-4-yl}propoxy)-3-methoxyphenyl]acetic acid] registered a melting point of 96 to 97 °C. Besides, in the series with KKAY mice (setting [1]), the inhibition in vivo at 0.005 % in diet came to 34%. Besides, in the series on KKAY mice (setting [2]), the inhibition in vivo at 0.005 % in diet is 18%.
In turn, `CCCC(C)c1nn(-c2ccc(C(F)(F)F)cn2)cc1CCCOc1c(C)cccc1CC(=O)O` (stereo not shown) [Example 222, [3-methyl-2-(3-{3-(1-methylbutyl)-1-[5-(trifluoromethyl)-2-pyridyl]-1H-pyrazol-4-yl}propoxy)phenyl]acetic acid] came in with a melting point of 147 to 148 °C. The inhibition in vivo at 0.005 % in diet in the series on KKAY mice (setting [1]) was found to be 36%. Further, the inhibition in vivo at 0.005 % in diet in the series on KKAY mice (setting [2]) turned out to be 54%.
For the molecule `CCc1cccc(CC(=O)O)c1OCCCc1cn(-c2ccc(C(F)(F)F)cn2)nc1C(CC)CC` [Example 241, [3-ethyl-2-(3-{3-(1-ethylpropyl)-1-[5-(trifluoromethyl)-2-pyridinyl]-1H-pyrazol-4-yl}propoxy)phenyl]acetic acid], the melting point fell in the range of 130 to 131 °C. In addition, the inhibition in vivo at 0.005 % in diet in the series on KKAY mice (setting [1]) amounted to 38%. For the same molecule, the inhibition in vivo at 0.005 % in diet in the series on KKAY mice (setting [2]) stood at 27%.
In the case of `CCc1cccc(CC(=O)O)c1OCCCc1cn(-c2ccc(Br)cn2)nc1C(C)C` [Example 247, (2-{3-[1-(5-bromo-2-pyridinyl)-3-isopropyl-1H-pyrazol-4-yl]propoxy}-3-ethylphenyl)acetic acid], the melting point is 152 °C. In the series on KKAY mice (setting [1]), the inhibition in vivo at 0.005 % in diet was found to be 25%. In the series with KKAY mice (setting [2]), the inhibition in vivo at 0.005 % in diet came to 34%.
`Cc1nn(-c2ccccn2)cc1COc1ccc(CCC(=O)O)cc1` [Example 372, 3-{4-[3-methyl-1-(2-pyridinyl)-1H-pyrazol-4-ylmethoxy]phenyl}propionic acid] returned a melting point of 129 to 130 °C.
With `COc1ccc(OC(C)(C)C(=O)O)cc1OCCCc1cn(-c2ccc(C(F)(F)F)cn2)nc1C(C)C` [Example 376, 2-[3-(3-{3-isopropyl-1-[5-(trifluoromethyl)-2-pyridinyl]-1H-pyrazol-4-yl}propoxy)-4-methoxyphenoxy]-2-methylpropanoic acid], the melting point was 106 to 107 °C.
The same measure, in the same setting: next, `CCc1ccc(OC(C)(C)C(=O)O)cc1OCCCc1cn(-c2ccc(C(F)(F)F)cn2)nc1C(C)C` [Example 377, 2-[4-ethyl-3-(3-{3-isopropyl-1-[5-(trifluoromethyl)-2-pyridinyl]-1H-pyrazol-4-yl}propoxy)phenoxy]-2-methylpropanoic acid]: 115 to 116 °C.
Regarding “calcium 2-[3-(3-{3-ethoxy-1-[4-(trifluoromethyl)phenyl]-1H-pyrazol-4-yl}propoxy)phenoxy]-2-methylpropanoate [Example 105]”, the pEC50 at PPARδ-RXRα heterodimer was 8.14.
The same measure, in the same setting: under “calcium 2-[3-(4-{3-ethoxy-1-[5-(trifluoromethyl)-2-pyridinyl]-1H-pyrazol-4-yl}butoxy)phenoxy]-2-methylpropanoate [Example 102]” stands 8.04.
For “calcium 3-[3-ethoxy-1-(4-{3-ethoxy-1-[5-(trifluoromethyl)-2-pyridinyl]-1H-pyrazol-4-yl}butyl)-1H-pyrazol-4-yl]propanoate [Example 110]”, the negative logarithm of the EC50 (pEC50) on PPARδ-RXRα heterodimer was 8.34. This pEC50 lies 0.30 log units higher than the previous one.

The values are drawn from patent publication US20060148858A1, “1, 2-Azole derivatives with hypoglycemic and hypolipidemic activity” (priority 2002, published 2006).
